Measurements taken from the NIST ThermoML archive (doi:10.1016/j.jct.2015.05.006).
Numbers after ± are expanded uncertainties.

Columns and labels:
[1] = xn = mol fraction of the nth substance listed; details: Liquid, Vibrating tube method
[2] = relative permittivity at various frequencies (dimensionless); xn = mol fraction of the nth substance listed; details: Liquid, Frequency=1 MHz, Parallel plate capacitor

COCCOC [1,2-dimethoxyethane] + C1CCCCC1
96.6 kPa
Details	mass density, [1] [kg/m3]	relative permittivity, [2]
288.15 K, x2 = 0	872.06 ± 1	7.41 ± 0.07
288.15 K, x2 = 0.0459	–	7.02 ± 0.07
288.15 K, x2 = 0.0497	865.63 ± 1	–
288.15 K, x2 = 0.1021	859.14 ± 1	–
288.15 K, x2 = 0.1034	–	6.56 ± 0.07
288.15 K, x2 = 0.1974	847.96 ± 1	–
288.15 K, x2 = 0.2009	–	5.84 ± 0.06
288.15 K, x2 = 0.3013	–	5.17 ± 0.05
288.15 K, x2 = 0.3031	836.42 ± 1	–
288.15 K, x2 = 0.4026	826.35 ± 1	–
288.15 K, x2 = 0.4027	–	4.55 ± 0.05
288.15 K, x2 = 0.4967	817.52 ± 1	–
288.15 K, x2 = 0.5031	–	3.99 ± 0.04
288.15 K, x2 = 0.5998	808.62 ± 1	3.51 ± 0.04
288.15 K, x2 = 0.6961	801.06 ± 1	–
288.15 K, x2 = 0.7015	–	3.06 ± 0.03
288.15 K, x2 = 0.7953	–	2.69 ± 0.03
288.15 K, x2 = 0.8006	793.78 ± 1	–
288.15 K, x2 = 0.9017	–	2.33 ± 0.02
288.15 K, x2 = 0.9033	787.7 ± 1	–
288.15 K, x2 = 0.9494	–	2.19 ± 0.02
288.15 K, x2 = 0.9514	785.33 ± 1	–
298.15 K, x2 = 0	861.17 ± 1	7.07 ± 0.07
298.15 K, x2 = 0.0446	855.02 ± 1	–
298.15 K, x2 = 0.0475	–	6.7 ± 0.07
298.15 K, x2 = 0.0978	848.89 ± 1	–
298.15 K, x2 = 0.098	–	6.31 ± 0.06
298.15 K, x2 = 0.1963	837.39 ± 1	–
298.15 K, x2 = 0.2057	–	5.58 ± 0.06
298.15 K, x2 = 0.3034	–	4.96 ± 0.05
298.15 K, x2 = 0.3038	825.79 ± 1	–
298.15 K, x2 = 0.3952	–	4.43 ± 0.04
298.15 K, x2 = 0.4024	815.96 ± 1	–
298.15 K, x2 = 0.5013	806.83 ± 1	–
298.15 K, x2 = 0.5077	–	3.84 ± 0.04
298.15 K, x2 = 0.6014	–	3.41 ± 0.03
298.15 K, x2 = 0.6054	798.09 ± 1	–
298.15 K, x2 = 0.7018	790.78 ± 1	–
298.15 K, x2 = 0.7093	–	2.96 ± 0.03
298.15 K, x2 = 0.7994	–	2.63 ± 0.03
298.15 K, x2 = 0.8023	784.01 ± 1	–
298.15 K, x2 = 0.8965	778.59 ± 1	–
298.15 K, x2 = 0.9016	–	2.3 ± 0.02
298.15 K, x2 = 0.9498	776 ± 1	–
298.15 K, x2 = 0.952	–	2.16 ± 0.02
308.15 K, x2 = 0	850.13 ± 1	6.75 ± 0.07
308.15 K, x2 = 0.0454	844.13 ± 1	–
308.15 K, x2 = 0.0456	–	6.42 ± 0.06
308.15 K, x2 = 0.0969	838.11 ± 1	–
308.15 K, x2 = 0.0976	–	6.05 ± 0.06
308.15 K, x2 = 0.1954	826.9 ± 1	–
308.15 K, x2 = 0.1983	–	5.41 ± 0.05
308.15 K, x2 = 0.299	–	4.83 ± 0.05
308.15 K, x2 = 0.2993	815.83 ± 1	–
308.15 K, x2 = 0.3959	–	4.29 ± 0.04
308.15 K, x2 = 0.4037	805.56 ± 1	–
308.15 K, x2 = 0.4993	–	3.77 ± 0.04
308.15 K, x2 = 0.5042	796.44 ± 1	–
308.15 K, x2 = 0.6002	–	3.32 ± 0.03
308.15 K, x2 = 0.6072	787.93 ± 1	–
308.15 K, x2 = 0.6995	781.05 ± 1	–
308.15 K, x2 = 0.7005	–	2.93 ± 0.03
308.15 K, x2 = 0.8004	774.34 ± 1	–
308.15 K, x2 = 0.8012	–	2.58 ± 0.03
308.15 K, x2 = 0.902	–	2.27 ± 0.02
308.15 K, x2 = 0.904	768.62 ± 1	–
308.15 K, x2 = 0.9514	–	2.14 ± 0.02
308.15 K, x2 = 0.9535	766.31 ± 1	–

COCCOC [1,2-dimethoxyethane] + CCCCCC
95.2 kPa
Details	mass density, [1] [kg/m3]	relative permittivity, [2]
288.15 K, x2 = 0	872.06 ± 1	7.41 ± 0.07
288.15 K, x2 = 0.0501	857.87 ± 1	–
288.15 K, x2 = 0.0513	–	6.89 ± 0.07
288.15 K, x2 = 0.0904	–	6.46 ± 0.06
288.15 K, x2 = 0.1049	842.87 ± 1	–
288.15 K, x2 = 0.1999	–	5.58 ± 0.06
288.15 K, x2 = 0.2992	–	4.85 ± 0.05
288.15 K, x2 = 0.2999	794.19 ± 1	–
288.15 K, x2 = 0.4004	–	4.19 ± 0.04
288.15 K, x2 = 0.4059	770.33 ± 1	–
288.15 K, x2 = 0.4961	751.31 ± 1	–
288.15 K, x2 = 0.4983	–	3.65 ± 0.04
288.15 K, x2 = 0.6001	–	3.17 ± 0.03
288.15 K, x2 = 0.6054	729.6 ± 1	–
288.15 K, x2 = 0.694	713.16 ± 1	–
288.15 K, x2 = 0.7004	–	2.77 ± 0.03
288.15 K, x2 = 0.7916	696.41 ± 1	–
288.15 K, x2 = 0.8057	–	2.41 ± 0.02
288.15 K, x2 = 0.9022	–	2.14 ± 0.02
288.15 K, x2 = 0.9035	678.43 ± 1	–
288.15 K, x2 = 0.9509	–	2.02 ± 0.02
288.15 K, x2 = 0.9533	670.87 ± 1	–
298.15 K, x2 = 0	861.17 ± 1	7.07 ± 0.07
298.15 K, x2 = 0.0459	–	6.61 ± 0.07
298.15 K, x2 = 0.0495	846.99 ± 1	–
298.15 K, x2 = 0.0955	–	6.19 ± 0.06
298.15 K, x2 = 0.1011	833.13 ± 1	–
298.15 K, x2 = 0.2009	807.1 ± 1	–
298.15 K, x2 = 0.2013	–	5.36 ± 0.05
298.15 K, x2 = 0.2992	–	4.67 ± 0.05
298.15 K, x2 = 0.3031	782.87 ± 1	–
298.15 K, x2 = 0.398	–	4.07 ± 0.04
298.15 K, x2 = 0.4027	760.92 ± 1	–
298.15 K, x2 = 0.4977	740.86 ± 1	–
298.15 K, x2 = 0.4984	–	3.53 ± 0.04
298.15 K, x2 = 0.5959	721.71 ± 1	–
298.15 K, x2 = 0.6014	–	3.08 ± 0.03
298.15 K, x2 = 0.6972	703.06 ± 1	–
298.15 K, x2 = 0.7019	–	2.7 ± 0.03
298.15 K, x2 = 0.8016	–	2.38 ± 0.02
298.15 K, x2 = 0.8051	684.57 ± 1	–
298.15 K, x2 = 0.8985	670 ± 1	–
298.15 K, x2 = 0.9031	–	2.11 ± 0.02
298.15 K, x2 = 0.9477	–	2.01 ± 0.02
308.15 K, x2 = 0	850.13 ± 1	6.75 ± 0.07
308.15 K, x2 = 0.0457	837.34 ± 1	–
308.15 K, x2 = 0.0494	–	6.3 ± 0.06
308.15 K, x2 = 0.0927	824.63 ± 1	–
308.15 K, x2 = 0.0967	–	5.9 ± 0.06
308.15 K, x2 = 0.1938	–	5.18 ± 0.05
308.15 K, x2 = 0.2001	797.09 ± 1	–
308.15 K, x2 = 0.2984	773.76 ± 1	–
308.15 K, x2 = 0.3011	–	4.47 ± 0.05
308.15 K, x2 = 0.3939	752.46 ± 1	–
308.15 K, x2 = 0.4025	–	3.91 ± 0.04
308.15 K, x2 = 0.4989	–	3.44 ± 0.03
308.15 K, x2 = 0.5082	728.75 ± 1	–
308.15 K, x2 = 0.5955	711.88 ± 1	–
308.15 K, x2 = 0.6018	–	3 ± 0.03
308.15 K, x2 = 0.6927	694.24 ± 1	–
308.15 K, x2 = 0.699	–	2.66 ± 0.03
308.15 K, x2 = 0.7982	–	2.36 ± 0.02
308.15 K, x2 = 0.8036	675.37 ± 1	–
308.15 K, x2 = 0.901	–	2.09 ± 0.02
308.15 K, x2 = 0.9023	660.16 ± 1	–
308.15 K, x2 = 0.9506	–	1.99 ± 0.02
308.15 K, x2 = 0.9509	653.01 ± 1	–
